Laboratory results reported in patent US8586603B2, “Aminotetraline derivatives” (priority 2009, dated 2013).
pKi: −log10 of the molar value.

What was measured:
[1] = Pig skin permeation from saturated solution; assay type: in vitro ADME; details: pig leg skin 300-500 μm, phosphate buffer pH 6.2, 32° C., 48 hours, mean of cells 1-3
Description: The in vitro permeation of compound 1 through pig skin from saturated solution (f1) and from a patch (f2) was investigated.
(§1) For the permeation experiments horizontal cells with an acceptor and donor volume of approx. 23 mL of phosphate buffer pH 6.2 were used. The donor cells contained saturated solutions of compound 1 (2 mg/mL) in phosphate buffer pH 6.2. The experiments were performed at a temperature of 32° C. and the acceptor and donor media were slowly stirred. For the study pig leg skin with thickness of 300-500 μm were used. The experiments were performed in triplicate (n=3) over a period of 48 hours. During this time period six samples at different time points (after 2, 4, 6, 8, 24 and 48 hours) were taken. After each individual incubation period the concentration of the test compound in the acceptor medium was analysed by HPLC at 275 nm, 20° C., flow rate 2.0 mL/min in acetonitrile/water/TFA.
Evaluation: The concentration of the test compound in the acceptor medium was calculated by using an external standard solution with known concentration. Then the concentration of test compound was correlated with the incubation time by linear regression. The flux rate [μg/cm^2/h] is equivalent to the slope of the linear equation.

[2] = test system: porcine cortical pα1 adrenergic receptor; assay: Receptor binding assay, [3H]prazosin competition, porcine cortical membranes; details: vs p5-HT1a
[3] = biological target: T1, porcine cortical pα1 adrenergic receptor; assay: as above; details: means of 2-8 individual experiments each done as triplicate
T1 construct: Ki pα1; other: means of 2-8 individual experiments each done as triplicate

[4] = Saturated solution in phosphate buffer pH 6.2; assay type: physicochemical
Description: as §1

[5] = biological target: porcine cortical pα2 adrenergic receptor; assay: Receptor binding assay, [3H]RX821002 competition, porcine cortical membranes; details: means of 2-8 individual experiments each done as triplicate
[6] = biological target: T2, porcine striatal pD1 dopamine receptor (Sus scrofa, UniProt P50130); assay: Receptor binding assay, [3H]SCH 23390 competition, porcine striatal membranes
T2 construct: membrane homogenates prepared from porcine striatal or cortical tissue; from tissue; host or cells: porcine striatum
T2 sequence (P50130 whole entry): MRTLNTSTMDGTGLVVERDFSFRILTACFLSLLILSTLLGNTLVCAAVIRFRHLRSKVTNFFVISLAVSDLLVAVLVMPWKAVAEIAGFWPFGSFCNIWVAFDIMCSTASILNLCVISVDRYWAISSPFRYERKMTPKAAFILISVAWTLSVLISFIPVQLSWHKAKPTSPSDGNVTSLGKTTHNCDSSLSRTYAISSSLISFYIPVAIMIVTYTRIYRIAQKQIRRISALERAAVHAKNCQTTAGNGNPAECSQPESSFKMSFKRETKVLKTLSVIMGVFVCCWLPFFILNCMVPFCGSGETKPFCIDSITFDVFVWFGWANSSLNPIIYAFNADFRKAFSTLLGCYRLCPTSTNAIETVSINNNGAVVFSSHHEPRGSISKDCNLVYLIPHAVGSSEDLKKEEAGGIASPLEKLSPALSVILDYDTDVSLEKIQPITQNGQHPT

[7] = test system: formalin-induced hind paw licking in CD-1 mice; assay: Animal pain test (formalin assay); assay type: in vivo; details: for % Inhibition of hind paw licking time: vs vehicle
Description: The formalin test is being widely accepted as a valid basic model of persistent clinical pain, and may indicate a compound's efficacy in neuropathic and/or inflammatory pain conditions.
Compound 1 and a comparator (gabapentin 100 mg/kg) were administered to groups of 5 or 10 CD-1 (Crl.) derived male mice weighing 24±2 g. Test substances and vehicle (0.2% HPMC/0.9% NaCl) were each administered by intraperitoneal injection (gabapentin) or oral gavage (compound 1) 15 or 30 minutes before subplantar injection of formalin (0.02 ml, 2% solution). Reduction of the formalin-induced hind paw licking time recorded at 5-minute interval during the following 0- to 35-minute after formalin injection by 50 percent or more (≧50%) indicated significant analgesic activity. Also, statistical analysis was performed by using one-way ANOVA followed by Dunnett's test to compare the test compound-treated and vehicle control groups. Significance is considered at P<0.05 level. Acute toxic symptoms and autonomic effects were observed after the administration of test compounds.

[8] = biological target: T3, human dopamine receptor subtype hD3 (Homo sapiens, UniProt P35462); assay: Receptor binding assay, [3H]spiperone competition, CHO cell membranes
T3 construct: expressed in transfected cells; host or cells: CHO
T3 sequence (P35462 whole entry): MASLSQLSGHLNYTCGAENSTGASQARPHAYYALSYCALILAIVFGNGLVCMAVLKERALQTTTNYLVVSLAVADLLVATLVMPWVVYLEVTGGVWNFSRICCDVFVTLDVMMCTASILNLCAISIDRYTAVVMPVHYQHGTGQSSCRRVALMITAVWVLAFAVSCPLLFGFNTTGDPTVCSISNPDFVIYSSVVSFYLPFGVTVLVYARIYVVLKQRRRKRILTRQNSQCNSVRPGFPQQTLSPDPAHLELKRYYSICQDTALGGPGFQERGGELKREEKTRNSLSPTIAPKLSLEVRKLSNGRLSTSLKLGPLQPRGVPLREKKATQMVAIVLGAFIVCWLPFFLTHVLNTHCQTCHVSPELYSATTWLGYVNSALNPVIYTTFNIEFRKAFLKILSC
Description: (§2) Receptor binding data were determined when performing competition binding assays with membrane preparations of cloned cells (stably transfected Chinese Hamster Ovary cells (CHO)) expressing the human receptors and the following radioligands: [^3H]spiperone at the human dopamine receptor subtypes hD2long, hD2short, D3, and hD4.4.
(§3) Selectivity ratios were calculated by division of the Ki values of the various compounds at the respective receptors through the Ki values at the 5HT1a receptor.

[9] = biological target: T4, human dopamine receptor subtype hD2short (Homo sapiens, UniProt P14416); assay: as above
T4 construct: expressed in transfected cells; host or cells: CHO
T4 sequence (P14416 1-414 isoform P14416-2): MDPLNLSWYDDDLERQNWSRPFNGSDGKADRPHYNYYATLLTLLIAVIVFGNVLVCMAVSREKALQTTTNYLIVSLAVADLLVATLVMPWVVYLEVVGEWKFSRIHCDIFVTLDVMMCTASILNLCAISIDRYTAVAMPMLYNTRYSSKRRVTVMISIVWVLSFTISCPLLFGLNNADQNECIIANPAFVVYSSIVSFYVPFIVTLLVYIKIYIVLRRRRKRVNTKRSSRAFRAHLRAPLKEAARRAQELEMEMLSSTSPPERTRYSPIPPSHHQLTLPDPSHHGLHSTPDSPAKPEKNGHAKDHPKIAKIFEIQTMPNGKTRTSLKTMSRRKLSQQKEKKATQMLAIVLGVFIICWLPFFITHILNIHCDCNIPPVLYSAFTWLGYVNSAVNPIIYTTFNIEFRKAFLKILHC
Description: as §2, §3

[10] = biological target: T5, human dopamine receptor subtype hD2long (Homo sapiens, UniProt P14416); assay: as above
T5 construct: expressed in transfected cells; host or cells: CHO
T5 sequence (P14416 whole entry): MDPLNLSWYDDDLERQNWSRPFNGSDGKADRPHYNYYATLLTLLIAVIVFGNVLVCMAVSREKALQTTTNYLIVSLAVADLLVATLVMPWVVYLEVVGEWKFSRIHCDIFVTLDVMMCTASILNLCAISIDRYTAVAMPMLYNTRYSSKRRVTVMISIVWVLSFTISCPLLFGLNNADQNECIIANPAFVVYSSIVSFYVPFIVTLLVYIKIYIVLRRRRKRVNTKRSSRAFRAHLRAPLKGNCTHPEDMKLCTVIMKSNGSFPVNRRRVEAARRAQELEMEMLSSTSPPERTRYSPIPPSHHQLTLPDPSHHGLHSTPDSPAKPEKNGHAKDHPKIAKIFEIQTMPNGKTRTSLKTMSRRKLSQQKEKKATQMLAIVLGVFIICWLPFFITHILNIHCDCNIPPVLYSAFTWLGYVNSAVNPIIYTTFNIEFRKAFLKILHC
Description: as §2, §3

[11] = means of 2-8 individual experiments each done as triplicate
[12] = 5 mg/kg oral, interval 0-5 minutes
[13] = 5 mg/kg oral, interval 5-10 minutes
[14] = 5 mg/kg oral, interval 10-15 minutes
[15] = 5 mg/kg oral, interval 15-20 minutes
[16] = 5 mg/kg oral, interval 20-25 minutes
[17] = 5 mg/kg oral, interval 25-30 minutes
[18] = 5 mg/kg oral, interval 30-35 minutes
[19] = 10 mg/kg oral, interval 0-5 minutes
[20] = 10 mg/kg oral, interval 5-10 minutes
[21] = 10 mg/kg oral, interval 20-25 minutes
[22] = 10 mg/kg oral, interval 25-30 minutes
[23] = 10 mg/kg oral, interval 30-35 minutes

What does the source list for CCCN(CCc1cccs1)C1CCc2cccc(O)c2C1 (stereo not shown) [Compound 1, N-(8-Hydroxytetralin-2-yl)-N-propyl-N-[2-(2-thienyl)ethyl]amine]?
average flux rate from saturated solution [1]: 4.0 μg/cm^2/h; selectivity ratio pα1 [2]: 230; pKi [3]: 6.77; concentration of saturated solution [4]: 2000 µg/mL; pKi [5]: 7.17; pKi [6, 11]: 5.03; selectivity ratio pD1 ([6]; vs p5-HT1a): 13 000; analgesic effect ([7]; 1 mg/kg oral administration): no analgesic effect; analgesic effect ([7]; 3 mg/kg oral administration): some effect; Hind Paw Licking Times [7, 12]: 63.4 ± 7.2 s; % Inhibition of hind paw licking time [7, 12]: (18%); Hind Paw Licking Times [7, 13]: 10.2 ± 3.9 s; % Inhibition of hind paw licking time [7, 13]: (0%); Hind Paw Licking Times [7, 14]: 25.1 ± 11.6 s; % Inhibition of hind paw licking time [7, 14]: (54%); Hind Paw Licking Times [7, 15]: 56.7 ± 18 s; % Inhibition of hind paw licking time [7, 15]: (44%); Hind Paw Licking Times [7, 16]: 54.7 ± 9.4 s; % Inhibition of hind paw licking time [7, 16]: (12%); Hind Paw Licking Times [7, 17]: 54.7 ± 15.1 s; % Inhibition of hind paw licking time [7, 17]: (0%); Hind Paw Licking Times [7, 18]: 24.7 ± 9.8 s; % Inhibition of hind paw licking time [7, 18]: (0%); analgesic effect ([7]; 10 mg/kg oral administration, 10-20 minutes period): significant analgesic effect; Hind Paw Licking Times [7, 19]: 64.3 ± 7.3 s; % Inhibition of hind paw licking time [7, 19]: (16%); Hind Paw Licking Times [7, 20]: 0 ± 0 s; % Inhibition of hind paw licking time [7, 20]: (100%); % Inhibition of hind paw licking time ([7]; 10 mg/kg oral, interval 10-15 minutes): (96%); % Inhibition of hind paw licking time ([7]; 10 mg/kg oral, interval 15-20 minutes): (69%); Hind Paw Licking Times [7, 21]: 37.5 ± 13.6 s; % Inhibition of hind paw licking time [7, 21]: (40%); Hind Paw Licking Times [7, 22]: 29.9 ± 12.7 s; % Inhibition of hind paw licking time [7, 22]: (0%); Hind Paw Licking Times [7, 23]: 12.8 ± 8.8 s; % Inhibition of hind paw licking time [7, 23]: (10%); activity in an oral animal model of pain ([7]; oral): active; pKi [8, 11]: 6.72; selectivity ratio hD3 ([8]; vs p5-HT1a): 260; pKi [9, 11]: 6.59; selectivity ratio hD2short ([9]; vs p5-HT1a): 360; pKi [10, 11]: 6.59; selectivity ratio hD2long ([10]; vs p5-HT1a): 360
